From US7674807B2, “Heterocycle-substituted n-phenyl-phthalamide derivatives, related compounds and their use as insecticides” (Bayer CropScience AG, priority 2004, dated 2010)

How the values were obtained:
[1] = tested on: larva of Spodoptera litura; assay: Test against larva of Spodoptera litura (leaf dip, sweet potato leaves); type: in vivo; conditions: 20 ppm concentration of the active component; third instar larvae; counted after 7 days; 25° C.
In short: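 Sweet potato leaves were dipped in emulsified compound diluted with water, air-dried, and given to 10 third-instar larvae per dish at 25° C, with fresh leaves added on days 2 and 4. Mortality was counted after 7 days and averaged over 2 dishes.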

[2] = tested on: Myzus persicae resistant to organophosphorous agents and carbamates; assay: Test against Myzus persicae resistant to organophosphorous agents and carbamates (spray on eggplant seedlings); type: in vivo; conditions: 100 ppm concentration of the effective component; 7 days after spraying; green house of 28° C.
Description: About 30 bred Myzus persicae resistant to organophosphorous agents and carbamates were inoculated per 1 seedling of eggplant planted in a vinyl pot of 6 cm diameter. One day after the inoculation, a sufficient amount of a diluted aqueous solution of a prescribed concentration of an active compound prepared as mentioned above, was sprayed by using a spray gun. After spraying it was placed in a green house of 28° C. and the rate of death was calculated 7 days after the spraying. Test was repeated twice.

[3] = tested on: larva of Cnaphalocrocis medinalis Guenee; assay: Test against larva of Cnaphalocrocis medinalis Guenee (sprayed paddy rice foliage); type: in vivo; conditions: 20 ppm concentration of the active component; second instar larvae; counted after 7 days; 25° C.
In short: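 Potted rice (Tamanishiki) sprayed with aqueous dilutions of compound at the prescribed concentration; air-dried leaf pieces placed in dishes with five 2nd-instar larvae at 25° C, fresh treated foliage added at days 2 and 4. Mortality counted at day 7, averaged over 2 dishes.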

| melting point [°C] | Compound | controlling effect, rate of death [1] [%] | controlling effect, rate of death [2] [%] | controlling effect, rate of death [3] [%] |
| --- | --- | --- | --- | --- |
|  | CCSCC(C)NC(=O)c1c(Cl)cccc1C(=O)Nc1ccc(Cn2nc(C(F)(F)F)nc2C(F)(F)F)cc1C (stereo not shown) [compound 146] | 100 | 100 | 100 |
|  | CC[S+]([O-])CC(C)NC(=O)c1c(Cl)cccc1C(=O)Nc1ccc(Cn2nc(C(F)(F)F)nc2C(F)(F)F)cc1C (stereo not shown) [compound 147] | 100 | 100 | 100 |
|  | CCS(=O)(=O)CC(C)NC(=O)c1c(Cl)cccc1C(=O)Nc1ccc(Cn2nc(C(F)(F)F)nc2C(F)(F)F)cc1C (stereo not shown) [compound 148] | 100 | 100 | 100 |
|  | CSCC(C)(C)NC(=O)c1c(Br)cccc1C(=O)Nc1ccc(Cn2nc(C(F)(F)F)nc2C(F)(F)F)cc1C [compound 174] | 100 | 100 | 100 |
|  | Cc1cc(Cn2nc(C(F)(F)F)nc2C(F)(F)F)ccc1NC(=O)c1cccc(Br)c1C(=O)NC(C)(C)CS(C)(=O)=O [compound 176] | 100 | 100 | 100 |
|  | Cc1cc(Cn2nc(C(F)(F)F)nc2C(F)(F)F)ccc1NC(=O)c1cccc(Br)c1C(=O)NC(C)C[S+](C)[O-] (stereo not shown) [compound 180] | 100 | 100 | 100 |
|  | Cc1cc(Cn2nc(C(F)(F)F)nc2C(F)(F)F)ccc1NC(=O)c1cccc(Br)c1C(=O)NC(C)CS(C)(=O)=O (stereo not shown) [compound 181] | 100 | 100 | 100 |
|  | CSCC(C)(C)NC(=O)c1c(I)cccc1C(=O)Nc1ccc(Cn2nc(C(F)(F)F)nc2C(F)(F)F)cc1C [compound 211] | 100 | 100 | 100 |
|  | Cc1cc(Cn2nc(C(F)(F)F)nc2C(F)(F)F)ccc1NC(=O)c1cccc(I)c1C(=O)NC(C)(C)CS(C)(=O)=O [compound 213] | 100 | 100 | 100 |
|  | CSCC(C)NC(=O)c1c(I)cccc1C(=O)Nc1ccc(Cn2nc(C(F)(F)F)nc2C(F)(F)F)cc1C (stereo not shown) [compound 214] | 100 | 100 | 100 |
|  | CSCC(C)NC(=O)c1c(I)cccc1C(=O)Nc1ccc(Cn2nc(C(F)(F)F)nc2C(F)(F)F)cc1C (stereo not shown) [compound 215] | 100 | 100 | 100 |
|  | Cc1cc(Cn2nc(C(F)(F)F)nc2C(F)(F)F)ccc1NC(=O)c1cccc(I)c1C(=O)NC(C)CS(C)(=O)=O (stereo not shown) [compound 218] | 100 | 100 | 100 |
|  | CCSCC(C)NC(=O)c1c(I)cccc1C(=O)Nc1ccc(Cn2nc(C(F)(F)F)nc2C(F)(F)F)cc1C (stereo not shown) [compound 220] | 100 | 100 | 100 |
|  | CCS(=O)(=O)CC(C)NC(=O)c1c(I)cccc1C(=O)Nc1ccc(Cn2nc(C(F)(F)F)nc2C(F)(F)F)cc1C (stereo not shown) [compound 222] | 100 | 100 | 100 |
|  | CSCC(C)NC(=O)c1c(I)cccc1C(=O)Nc1ccc(Cn2nc(C(F)(F)C(F)(F)F)nc2C(F)(F)F)cc1C (stereo not shown) [compound 226] | 100 | 100 | 100 |
| 79 to 86 | CSCC(C)(C)NC(=O)c1c(I)cccc1C(=O)Nc1ccc(C(C)n2ccc(C(F)(F)F)n2)cc1C (stereo not shown) [compound 558, N^2-(1,1-dimethyl-2-methylsulfanyl-ethyl)-3-iodo-N^1-{2-methyl-4-[1-(3-trifluoromethyl-1H-pyrazol-1-yl)-ethyl]-phenyl}-phthalamide] |  |  |  |
|  | Cc1cc(C(C)n2nc(C(F)(F)F)nc2C(F)(F)F)ccc1NC(=O)c1cccc(Cl)c1C(=O)N[C@@H](C)CS(C)(=O)=O (stereo partly shown) [compound 570] | 100 | 100 | 100 |
|  | Cc1cc(C(C)n2nc(C(F)(F)F)nc2C(F)(F)F)ccc1NC(=O)c1cccc(I)c1C(=O)N[C@@H](C)C[S+](C)[O-] (stereo partly shown) [compound 572] | 100 | 100 | 100 |
|  | Cc1cc(C(C)n2nc(C(F)(F)C(F)(F)F)nc2C(F)(F)F)ccc1NC(=O)c1cccc(Cl)c1C(=O)N[C@@H](C)C[S+](C)[O-] (stereo partly shown) [compound 579] | 100 | 100 | 100 |
|  | Cc1cc(Cn2cc(C(F)(F)C(F)(F)F)c(C(F)(F)C(F)(F)C(F)(F)F)n2)ccc1NC(=O)c1cccc(I)c1C(=O)N[C@@H](C)C[S+](C)[O-] (stereo partly shown) [compound 920] | 100 | 100 | 100 |
